Results reported in PubChem BioAssay (NCI).
Where “and” joins values, the source holds several entries; their conditions need not be identical. Identical values can stand only once.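 Compound exposure: 48 hours, 5 concentrations, 96-well plates. Abbreviation: GI50, concentration required for 50% inhibition of growth. At the TGI there is no net growth.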

Legend:
Assay in all cases: DTP human tumour cell line panel, 48 h
[1] = tested on: COLO 205 colon
[2] = tested on: HCC-2998 colon
[3] = tested on: HOP-62 NSCLC
[4] = tested on: KM12 colon
[5] = tested on: NCI-H460 lung
[6] = tested on: NCI/ADR-RES ovarian
[7] = tested on: SF-295 CNS
[8] = tested on: SN12C renal
[9] = tested on: U251 CNS
[10] = tested on: UACC-257 melanoma

## COc1cc([C@H]2OC[C@H]3[C@@H]2CO[C@@H]3c2cc(OC)c3c(c2)OCO3)cc(OC)c1OC
[1]
  TGI: > 100 µM
[2]
  TGI: > 100 µM
[3]
  TGI: > 100 µM
[4]
  TGI: > 100 µM
[5]
  TGI: > 100 µM
[6]
  TGI: > 100 µM
[7]
  TGI: > 100 µM
[8]
  TGI: > 100 µM
[9]
  TGI: > 100 µM
[10]
  TGI: > 100 µM

## CS[C@]12C(=O)C[C@@]3(C)[C@@H](CC[C@]3(O)C(=O)CO)[C@@H]1CCC1=CC(=O)CC[C@@]12C
[1]
  TGI: > 100 µM
[2]
  TGI: 80.2 µM
[3]
  TGI: > 100 µM
[4]
  TGI: > 100 µM
[5]
  TGI: > 100 µM
[6]
  TGI: > 100 µM
[7]
  TGI: > 100 µM
[8]
  TGI: > 100 µM
[9]
  TGI: > 100 µM
[10]
  TGI: > 100 µM

## Cc1ccc(S(=O)(=O)Nc2cccc3[nH]c(C(F)(F)F)nc23)cc1
[1]
  GI50: 0.387 µM
  TGI: 10.7 µM
[2]
  GI50: 2.89 µM
  TGI: 40.3 µM
[3]
  GI50: 1.21 µM
  TGI: 41.8 µM
[4]
  GI50: 0.347 µM
  TGI: 26.8 µM
[5]
  GI50: 0.398 µM
  TGI: > 38.4 µM
[6]
  GI50: 0.412 µM
  TGI: 42.9 µM
[7]
  GI50: 0.283 µM
  TGI: 1.54 µM
[8]
  GI50: 2.72 µM
  TGI: > 89.2 µM
[9]
  GI50: 0.466 µM
  TGI: 21.4 µM
[10]
  GI50: 1.32 µM
  TGI: > 42 µM

## O=C1c2ccccc2-c2c1c1ccccc1c(=O)n2CCN1CCOCC1
[1]
  GI50: > 100 µM
  TGI: > 100 µM
[2]
  GI50: 42.5 µM
  TGI: > 100 µM
[3]
  GI50: > 100 µM
  TGI: > 100 µM
[4]
  GI50: 61.8 µM
  TGI: > 100 µM
[5]
  GI50: 55.4 µM
  TGI: > 100 µM
[6]
  GI50: > 100 µM
  TGI: > 100 µM
[7]
  GI50: 48.1 µM
  TGI: > 100 µM
[8]
  GI50: 94.1 µM
  TGI: > 100 µM
[9]
  GI50: 52.4 µM
  TGI: > 100 µM
[10]
  GI50: > 100 µM
  TGI: > 100 µM

## Cc1c2c(nn1C)CSCc1cc(n(C)n1)CSc1cc(c3ccccc3c1)OCCCc1c(C(=O)O)n(C)c3c-2c(Cl)ccc13
[1]
  GI50: 3.36 µM
  TGI: 12.2 µM
[2]
  GI50: 3.15 µM
  TGI: 13.4 µM
[3]
  GI50: 4.62 µM
  TGI: 17.3 µM
[4]
  GI50: 3.3 µM
  TGI: 11.9 µM
[5]
  GI50: 3.23 µM
  TGI: 10.7 µM
[6]
  GI50: 14.2 µM
  TGI: 30 µM
[7]
  GI50: 2.52 µM
  TGI: 8.37 µM
[8]
  GI50: 3.38 µM
  TGI: 12.6 µM
[9]
  GI50: 4.05 µM
  TGI: 13.7 µM
[10]
  GI50: 4.16 µM
  TGI: 16 µM

## O=C(NC[C@H](O)CO)c1ccncc1Nc1ccc(I)cc1F
[1]
  GI50: 0.00323 µM and < 0.01 µM
  TGI: > 100 µM
[2]
  GI50: 0.00358 µM and 0.019 µM
  TGI: > 8.4 µM and 9.22 µM
[3]
  GI50: 0.0472 µM and 0.298 µM
  TGI: > 94 µM
[4]
  GI50: 0.111 µM and 0.154 µM
  TGI: > 100 µM
[5]
  GI50: > 10 µM and 11.8 µM
  TGI: > 100 µM
[6]
  GI50: > 10 µM and 35 µM
  TGI: > 100 µM
[7]
  GI50: > 41 µM
  TGI: > 100 µM
[8]
  GI50: > 7.13 µM and 7.74 µM
  TGI: > 100 µM
[9]
  GI50: 1.84 µM and 4.92 µM
  TGI: > 100 µM
[10]
  GI50: 0.00359 µM and < 0.01 µM
  TGI: 0.0403 µM and 0.0438 µM

## CCOc1ccccc1N=Nc1c(C)[nH]n(-c2nc(-c3ccccc3)cs2)c1=O
[1]
  GI50: > 100 µM
  TGI: > 100 µM
[2]
  GI50: > 100 µM
  TGI: > 100 µM
[3]
  GI50: 35.1 µM
  TGI: > 100 µM
[4]
  GI50: > 100 µM
  TGI: > 100 µM
[5]
  GI50: 37.5 µM
  TGI: > 100 µM
[6]
  GI50: 37.6 µM
  TGI: > 100 µM
[7]
  GI50: 28.3 µM
  TGI: > 100 µM
[8]
  GI50: > 94.8 µM
  TGI: > 100 µM
[9]
  GI50: 36.2 µM
  TGI: > 100 µM
[10]
  GI50: 52.5 µM
  TGI: > 100 µM

## COc1c2c(nc3ccccc13)-c1cc3c(c(=O)n1C2)COC(=O)C3(O)CC(=O)N1CCOCC1 (stereo not given)
[1]
  TGI: > 86.5 µM
[2]
  TGI: 75.8 µM
[3]
  TGI: 20.7 µM
[4]
  TGI: 57.5 µM
[5]
  TGI: 30.9 µM
[6]
  TGI: > 48.8 µM
[7]
  TGI: 31.7 µM
[8]
  TGI: 25.4 µM
[9]
  TGI: 6.92 µM
[10]
  TGI: 98.4 µM

## Nc1[nH]nc2nc(-c3cccs3)cc(C(F)(F)F)c12
[1]
  GI50: > 25 µM
  TGI: > 25 µM
[2]
  GI50: > 25 µM
  TGI: > 25 µM
[3]
  GI50: > 25 µM
  TGI: > 25 µM
[4]
  GI50: 12 µM
  TGI: > 25 µM
[5]
  GI50: > 25 µM
  TGI: > 25 µM
[6]
  GI50: > 25 µM
  TGI: > 25 µM
[7]
  GI50: > 25 µM
  TGI: > 25 µM
[8]
  GI50: > 25 µM
  TGI: > 25 µM
[9]
  GI50: > 23.7 µM
  TGI: > 25 µM
[10]
  GI50: > 25 µM
  TGI: > 25 µM

## CC#CC(=O)SCCNC(=O)CC
[1]
  TGI: > 10 µM
[2]
  TGI: > 10 µM
[3]
  TGI: > 10 µM
[4]
  TGI: > 10 µM
[5]
  TGI: > 10 µM
[6]
  TGI: > 10 µM
[7]
  TGI: > 10 µM
[8]
  TGI: > 10 µM
[9]
  TGI: > 10 µM
[10]
  TGI: > 10 µM

## C=C1C(=O)OC2/C=C(/C)C(OC(C)=O)CC(O)/C(C)=C\C(OC(=O)/C(C)=C\C)C12 (stereo not given)
[1]
  TGI: > 100 µM
[2]
  TGI: > 100 µM
[3]
  TGI: > 100 µM
[4]
  TGI: > 100 µM
[5]
  TGI: > 100 µM
[6]
  TGI: > 100 µM
[7]
  TGI: > 100 µM
[8]
  TGI: > 100 µM
[9]
  TGI: > 100 µM
[10]
  TGI: > 100 µM

## C1CN(SSN2CCOCC2)CCO1
[1]
  GI50: 25 µM
  TGI: 64 µM
[2]
  GI50: > 100 µM
  TGI: > 100 µM
[3]
  GI50: 78.5 µM
  TGI: > 100 µM
[4]
  GI50: 43.6 µM
  TGI: > 100 µM
[5]
  GI50: 28.3 µM
  TGI: > 100 µM
[6]
  GI50: 35.3 µM
  TGI: > 100 µM
[7]
  GI50: 32.4 µM
  TGI: > 100 µM
[8]
  GI50: 26.6 µM
  TGI: 77.8 µM
[9]
  GI50: 33.6 µM
  TGI: > 100 µM
[10]
  GI50: 62.8 µM
  TGI: > 100 µM
